ChEMBL document CHEMBL4765227, “Hit to lead optimization of a series of N-[4-(1,3-benzothiazol-2-yl)phenyl]acetamides as monoacylglycerol lipase inhibitors with potential anticancer activity” (Eur J Med Chem, 2016)

Legend:
Assay type in all cases: functional
Details in all cases: read-out: GI
[1] = system: DU-145; experiment: Growth inhibition of human DU-145 cells at 10 uM incubated for 48 hrs by sulforhodamine B assay relative to control
[2] = system: NCI-H23; experiment: Growth inhibition of human NCI-H23 cells at 10 uM incubated for 48 hrs by sulforhodamine B assay relative to control
[3] = system: MDA-MB-468; experiment: Growth inhibition of human MDA-MB-468 cells at 10 uM incubated for 48 hrs by sulforhodamine B assay relative to control
[4] = system: SK-MEL-5; experiment: Growth inhibition of human SK-MEL-5 cells at 10 uM incubated for 48 hrs by sulforhodamine B assay relative to control
[5] = system: OVCAR-4; experiment: Growth inhibition of human OVCAR-4 cells at 10 uM incubated for 48 hrs by sulforhodamine B assay relative to control
[6] = system: RXF 393; experiment: Growth inhibition of human RXF 393 cells at 10 uM incubated for 48 hrs by sulforhodamine B assay relative to control
[7] = system: NCI-H322M; experiment: Growth inhibition of human NCI-H322M cells at 10 uM incubated for 48 hrs by sulforhodamine B assay relative to control
[8] = system: UACC-257; experiment: Growth inhibition of human UACC-257 cells at 10 uM incubated for 48 hrs by sulforhodamine B assay relative to control
[9] = system: SNB-19; experiment: Growth inhibition of human SNB-19 cells at 10 uM incubated for 48 hrs by sulforhodamine B assay relative to control
[10] = system: NCI-H460; experiment: Growth inhibition of human NCI-H460 cells at 10 uM incubated for 48 hrs by sulforhodamine B assay relative to control
[11] = system: SR; experiment: Growth inhibition of human SR cells at 10 uM incubated for 48 hrs by sulforhodamine B assay relative to control
[12] = system: U-251; experiment: Growth inhibition of human U-251 cells at 10 uM incubated for 48 hrs by sulforhodamine B assay relative to control
[13] = system: OVCAR-5; experiment: Growth inhibition of human OVCAR-5 cells at 10 uM incubated for 48 hrs by sulforhodamine B assay relative to control
[14] = system: NCI-H226; experiment: Growth inhibition of human NCI-H226 cells at 10 uM incubated for 48 hrs by sulforhodamine B assay relative to control
[15] = system: OVCAR-8; experiment: Growth inhibition of human OVCAR-8 cells at 10 uM incubated for 48 hrs by sulforhodamine B assay relative to control
[16] = system: KM12; experiment: Growth inhibition of human KM12 cells at 10 uM incubated for 48 hrs by sulforhodamine B assay relative to control
[17] = system: RPMI-8226; experiment: Growth inhibition of human RPMI-8226 cells at 10 uM incubated for 48 hrs by sulforhodamine B assay relative to control
[18] = system: CCRF-CEM; experiment: Growth inhibition of human CCRF-CEM cells at 10 uM incubated for 48 hrs by sulforhodamine B assay relative to control
[19] = system: SF-539; experiment: Growth inhibition of human SF-539 cells at 10 uM incubated for 48 hrs by sulforhodamine B assay relative to control
[20] = system: T47D; experiment: Growth inhibition of human T47D cells at 10 uM incubated for 48 hrs by sulforhodamine B assay relative to control
[21] = system: HT-29; experiment: Growth inhibition of human HT-29 cells at 10 uM incubated for 48 hrs by sulforhodamine B assay relative to control
[22] = system: HOP-92; experiment: Growth inhibition of human HOP-92 cells at 10 uM incubated for 48 hrs by sulforhodamine B assay relative to control
[23] = system: HCC 2998; experiment: Growth inhibition of human HCC 2998 cells at 10 uM incubated for 48 hrs by sulforhodamine B assay relative to control
[24] = system: HL-60(TB); experiment: Growth inhibition of human HL-60(TB) cells at 10 uM incubated for 48 hrs by sulforhodamine B assay relative to control
[25] = system: HCT-116; experiment: Growth inhibition of human HCT-116 cells at 10 uM incubated for 48 hrs by sulforhodamine B assay relative to control
[26] = system: Hs-578T; experiment: Growth inhibition of human Hs-578T cells at 10 uM incubated for 48 hrs by sulforhodamine B assay relative to control
[27] = system: PC-3; experiment: Growth inhibition of human PC-3 cells at 10 uM incubated for 48 hrs by sulforhodamine B assay relative to control
[28] = system: MDA-MB-435; experiment: Growth inhibition of human MDA-MB-435 cells at 10 uM incubated for 48 hrs by sulforhodamine B assay relative to control
[29] = system: SW-620; experiment: Growth inhibition of human SW-620 cells at 10 uM incubated for 48 hrs by sulforhodamine B assay relative to control
[30] = system: UACC-62; experiment: Growth inhibition of human UACC-62 cells at 10 uM incubated for 48 hrs by sulforhodamine B assay relative to control
[31] = system: SF-268; experiment: Growth inhibition of human SF-268 cells at 10 uM incubated for 48 hrs by sulforhodamine B assay relative to control
[32] = system: SN12C; experiment: Growth inhibition of human SN12C cells at 10 uM incubated for 48 hrs by sulforhodamine B assay relative to control
[33] = system: NCI-H522; experiment: Growth inhibition of human NCI-H522 cells at 10 uM incubated for 48 hrs by sulforhodamine B assay relative to control
[34] = system: SK-OV-3; experiment: Growth inhibition of human SK-OV-3 cells at 10 uM incubated for 48 hrs by sulforhodamine B assay relative to control
[35] = system: ACHN; experiment: Growth inhibition of human ACHN cells at 10 uM incubated for 48 hrs by sulforhodamine B assay relative to control
[36] = system: HCT-15; experiment: Growth inhibition of human HCT-15 cells at 10 uM incubated for 48 hrs by sulforhodamine B assay relative to control
[37] = system: M14; experiment: Growth inhibition of human M14 cells at 10 uM incubated for 48 hrs by sulforhodamine B assay relative to control
[38] = system: UO-31; experiment: Growth inhibition of human UO-31 cells at 10 uM incubated for 48 hrs by sulforhodamine B assay relative to control
[39] = system: LOX IMVI; experiment: Growth inhibition of human LOX IMVI cells at 10 uM incubated for 48 hrs by sulforhodamine B assay relative to control
[40] = system: A549; experiment: Growth inhibition of human A549/ATCC cells at 10 uM incubated for 48 hrs by sulforhodamine B assay relative to control
[41] = system: MDA-MB-231; experiment: Growth inhibition of human MDA-MB-231 cells at 10 uM incubated for 48 hrs by sulforhodamine B assay relative to control
[42] = system: TK-10; experiment: Growth inhibition of human TK-10 cells at 10 uM incubated for 48 hrs by sulforhodamine B assay relative to control
[43] = system: COLO 205; experiment: Growth inhibition of human COLO 205 cells at 10 uM incubated for 48 hrs by sulforhodamine B assay relative to control
[44] = system: SF-295; experiment: Growth inhibition of human SF-295 cells at 10 uM incubated for 48 hrs by sulforhodamine B assay relative to control

## O=C(Cn1cnc2ccccc21)Nc1ccc(-c2nc3ccccc3s2)cc1
[1]
  inhibition of growth at 10 µM: 21.8%
[2]
  inhibition of growth at 10 µM: 51.5%
[3]
  inhibition of growth at 10 µM: 70.3%
[4]
  inhibition of growth at 10 µM: 70.9%
[5]
  inhibition of growth at 10 µM: 57.9%
[6]
  inhibition of growth at 10 µM: 6.89%
[7]
  inhibition of growth at 10 µM: 8.06%
[8]
  inhibition of growth at 10 µM: 37.9%
[9]
  inhibition of growth at 10 µM: 28.5%
[10]
  inhibition of growth at 10 µM: 34.3%
[11]
  inhibition of growth at 10 µM: 60%
[12]
  inhibition of growth at 10 µM: 30.6%
[13]
  inhibition of growth at 10 µM: -5.63%
[14]
  inhibition of growth at 10 µM: 36.9%
[15]
  inhibition of growth at 10 µM: 28%
[16]
  inhibition of growth at 10 µM: 24.9%
[17]
  inhibition of growth at 10 µM: 62.6%
[18]
  inhibition of growth at 10 µM: 27.1%
[19]
  inhibition of growth at 10 µM: 22.9%
[20]
  inhibition of growth at 10 µM: 52.8%
[21]
  inhibition of growth at 10 µM: 12.7%
[22]
  inhibition of growth at 10 µM: 18.4%
[23]
  inhibition of growth at 10 µM: 24.9%
[24]
  inhibition of growth at 10 µM: 29.8%
[25]
  inhibition of growth at 10 µM: 56.5%
[26]
  inhibition of growth at 10 µM: 8.79%
[27]
  inhibition of growth at 10 µM: 33.3%
[28]
  inhibition of growth at 10 µM: 32.3%
[29]
  inhibition of growth at 10 µM: 15.2%
[30]
  inhibition of growth at 10 µM: 13%
[31]
  inhibition of growth at 10 µM: 14.7%
[32]
  inhibition of growth at 10 µM: 16.2%
[33]
  inhibition of growth at 10 µM: 33.4%
[34]
  inhibition of growth at 10 µM: 15.1%
[35]
  inhibition of growth at 10 µM: 15.5%
[36]
  inhibition of growth at 10 µM: 7.41%
[37]
  inhibition of growth at 10 µM: 13.6%
[38]
  inhibition of growth at 10 µM: 35.4%
[39]
  inhibition of growth at 10 µM: 44.6%
[40]
  inhibition of growth at 10 µM: 39%
[41]
  inhibition of growth at 10 µM: 9.34%
[42]
  inhibition of growth at 10 µM: 22.6%
[43]
  inhibition of growth at 10 µM: 22.5%
[44]
  inhibition of growth at 10 µM: 56.7%
